Source: patent US7435721B2, “Transport peptides such as C-terminal Erns peptide and analogues thereof” (Pepscan Systems B.V., priority 2000, dated 2008)
Like-named read-outs stand apart in the source and are kept apart here. Residues, ends and D or L forms follow the SMILES beside them. No end group written: not given here. *: point of attachment. Biotin = O=C1N[C@H]2[C@H](CS[C@H]2CCCCC(=O)*)N1

Assays:
Assay type in all cases: cell-based
guinea pig erythrocytes = experiment: Hemolytic assay, guinea pig erythrocytes; settings: 1% v/v, one hour at 37° C.
Procedure: Hemolytic assay. Hemolytic activity of various peptide concentrations was determined by incubation with human, guinea pig or sheep erythrocyte suspensions (final erythrocyte concentration, 1% v/v) for one hour at 37° C. After cooling and centrifugation, the optical density of the supernatants were measured at 540 nm. Peptide concentrations causing 50% hemolysis (EC50) were derived from the dose-response curves.

[1] = tested on: Escherichia coli ATCC 25922; experiment: Antimicrobial assay (MIC), E. coli; settings: for MIC (minimal inhibitory concentration needed to inhibit bacterial growth): overnight at 37° C.
Procedure: Antimicrobial assay. Two bacterial strains (Escherichia coli ATCC 25922 and Enterococcus faecalis ATCC 29212) were inoculated on heart infusion agar with 5% sheep blood and incubated aerobically overnight at 37° C. From the pure cultures, suspensions were made in saline to a density of 0.5 McFarland. These suspensions were diluted ten-fold in Mueller Hinton II broth, resulting in a final inoculum of approximately 10^7 cfu/ml.
Standard 96-well microtiter trays were filled with 100 ill of two-fold dilutions of peptide in physiologic salt solution in each well, resulting in the following concentration range: 4000, 2000, 1000, 500, 250, 125, 62.25, 31.63, 15.82, 7.96 and 0 μg/ml. The trays in column 12 were filled with 200 μl MH II broth (negative control).
Columns 1-11 of the microtiter trays were filled with 100 μl of the final inoculum of the bacterial suspensions, thus diluting the concentrations of the peptide two fold, resulting in the following peptide concentration range in the wells: 2000, 1000, 500, 250, 125, 62.25, 31.63, 15.82, 7.96, 3.98 and 0 μg/ml. In rows B, C and D, 100 μl of the final inoculum of E. coli and, in rows E, F and G, 100 μl of the final inoculum of E. faecalis was pipetted. The final bacterial concentration was approximately 5×10^5 cfu/well. All trays were sealed and incubated overnight at 37° C. After incubation, the microtiter trays were inspected visually for bacterial growth and the absorbance of the cultures at 630 nm (A630) was determined with an ELISA-reader. […] The experiment was performed independently in triplicate. The test was repeated again in triplicate after two days with the final peptide concentration range in the wells: 5000, 2500, 1250, 625, 312.5, 156.25, 78.12, 39.06, 19.58, 9.79, 4.88, 2.44 and 1.22 μg/ml.

[2] = tested on: live cells in suspension or subconfluent monolayers

Compound	Concentration (translocation activity of transport peptides) [2]	other results
CC[C@H](C)[C@H](NC(=O)[C@H](CCCNC(=N)N)NC(=O)[C@H](CC(C)C)NC(=O)[C@H](CCC(N)=O)NC(=O)[C@H](CCCNC(=N)N)NC(=O)CNC(=O)[C@H](CC(C)C)NC(=O)[C@H](Cc1c[nH]c2ccccc12)NC(=O)[C@H](CO)NC(=O)[C@@H](NC(=O)[C@@H](NC(=O)[C@H](CCCNC(=N)N)NC(=O)[C@H](C)NC(=O)[C@H](C)NC(=O)CNC(=O)[C@H](CCC(N)=O)NC(=O)[C@H](CCCNC(=N)N)NC(=O)[C@H](C)NC(=O)[C@H](CC(N)=O)NC(=O)[C@H](CCC(=O)O)NC(=O)[C@@H](NC(=O)[C@@H](NC(=O)[C@H](CC(N)=O)NC(=O)[C@@H](NC(=O)[C@H](CCSC)NC(=O)CNC(=O)[C@H](CC(=O)O)NC(=O)[C@H](CC(C)C)NC(=O)[C@H](CC(C)C)NC(=O)[C@H](Cc1ccc(O)cc1)NC(=O)[C@H](CC(C)C)NC(=O)[C@H](C)NC(=O)[C@@H](NC(=O)[C@H](CC(=O)O)NC(=O)[C@H](CCC(N)=O)NC(=O)[C@H](CC(C)C)NC(=O)[C@H](CC(C)C)NC(=O)[C@H](CO)NC(=O)CNC(=O)CCCC[C@@H]1SC[C@@H]2NC(=O)N[C@@H]21)[C@@H](C)O)[C@@H](C)O)[C@@H](C)O)[C@@H](C)CC)C(C)C)[C@@H](C)O)C(=O)N[C@@H](C)C(N)=O [172-211]		Hemolysis (peptide concentration causing 50% hemolysis) (guinea pig erythrocytes): >0.33 mg/mL; MIC (minimal inhibitory concentration needed to inhibit bacterial growth) [1]: >500 µg/mL
CC[C@H](C)[C@H](NC(=O)[C@H](CC(C)C)NC(=O)[C@H](CCCCN)NC(=O)CNC(=O)[C@H](CC(N)=O)NC(=O)CNC(=O)CCCC[C@@H]1SC[C@@H]2NC(=O)N[C@@H]21)C(=O)N[C@@H](CCCCN)C(=O)NCC(=O)N[C@@H](CCCNC(=N)N)C(=O)N[C@H](C(=O)N1CCC[C@H]1C(=O)N[C@H](C(=O)N[C@@H](CCCCN)C(=O)N[C@@H](Cc1ccccc1)C(=O)NCC(=O)N[C@@H](CCCCN)C(=O)N[C@@H](C)C(=O)N[C@@H](CC(=O)O)C(=O)N[C@@H](CS)C(=O)N[C@@H](CC(=O)O)C(=O)N[C@@H](CCCNC(=N)N)C(=O)N1CCC[C@H]1C(=O)N1CCC[C@H]1C(=O)N[C@@H](CCCCN)C(=O)N[C@@H](Cc1c[nH]cn1)C(=O)N[C@@H](CO)C(=O)N[C@@H](CCC(N)=O)C(=O)N[C@@H](CC(N)=O)C(=O)NCC(=O)N[C@@H](CCSC)C(=O)NCC(=O)N[C@@H](CCCCN)C(N)=O)[C@@H](C)CC)[C@@H](C)O [L3 loop 59-88] (Biotin-GNGKLIKGRTPIKFGKADCDRPPKHSQNGMGK-NH2)		Translocation activity (in words) [2]: showed translocation activity; Concentration (translocation activity), mapping of restrictocin L3 loop ([2]; Table 10): 1.0 µM; Antibacterial activity (in words) [1]: no antibacterial activity; MIC (minimal inhibitory concentration needed to inhibit bacterial growth) [1]: >500 µg/mL
Biotin-DRRRRGSRPSGAERRRRRAAAA-NH2 [RSG-1.2]	0.1 µM	
Biotin-DTRQARRNRRRRWRERQRAAAAR-NH2 [HIV-1 Rev]	0.1 µM	
Biotin-GNGKLIKGRTPIKFGKADCDRPPKHSQNGM-NH2		Concentration (translocation activity), mapping of restrictocin L3 loop [2]: 3.0 µM
Biotin-GRQLRIAGKRLRGRSK-NH2 [MDR-25]		Concentration (translocation activity), optimization of E^rns peptide [2]: 0.3 µM
Biotin-GRQLRIAGRRLRRRSR-NH2 [MDM-26]		Concentration (translocation activity), optimization of E^rns peptide [2]: 0.1 µM
Biotin-GRQLRRAGRRLRGRSR-NH2 [MDM-25]		Concentration (translocation activity), optimization of E^rns peptide [2]: 0.1 µM
Biotin-GRQLRRAGRRLRRRSR-NH2 [MDM-27]		Concentration (translocation activity), optimization of E^rns peptide [2]: 0.1 µM
Biotin-KCPSRRPKR-NH2 [Alpha virus E3]	3.0 µM	
Biotin-KGRTPIKFGKADCDRPPKHSQNGMGK-NH2		Concentration (translocation activity), mapping of restrictocin L3 loop [2]: 3.0 µM
Biotin-KKPGKKTTTKPTKK-NH2 [MDS-23]	0.3 µM	
Biotin-KKPGKKTTTKPTKKPTIKTTKK-NH2 [MDS-09]	0.3 µM	
Biotin-KKPTIKTTKK-NH2 [MDS-37]	0.3 µM	
Biotin-KLIKGRTPIKFGKADCDRPPKHSGK-NH2		Concentration (translocation activity), mapping of restrictocin L3 loop [2]: 0.3 µM
Biotin-KLIKGRTPIKFGKADCDRPPKHSQNGK-NH2		Concentration (translocation activity), mapping of restrictocin L3 loop [2]: 0.3 µM
Biotin-KLIKGRTPIKFGKADCDRPPKHSQNGMGK-NH2		Concentration (translocation activity), mapping of restrictocin L3 loop [2]: 0.3 µM
Biotin-KLIKGRTPIKFGKARCRRPPKHSGK-NH2		Concentration (translocation activity), mapping of restrictocin L3 loop [2]: 0.3 µM
Biotin-KRIPNKKPGKK-NH2 [MDS-34]	0.03 µM	
Biotin-KRIPNKKPGKKT-NH2 [MDP-32]	0.03 µM	
Biotin-KRIPNKKPGKKTTTKPTKK-NH2 [MDP-19]	0.3 µM	

Compound	Concentration (translocation activity of transport peptides) [2]	other results
Biotin-KRIPNKKPGKKTTTKPTKKPTIK-NH2 [MDP-08]	0.3 µM	
Biotin-KRIPNKKPGKKTTTKPTKKPTIKTTKKDLK-NH2 [MDN-13]	1.0 µM	
Biotin-KRIPNKKPGKKTTTKPTKKPTIKTTKKDLKPQTTKPK-NH2 [MDN-12]	1.0 µM	
Biotin-KRIPNKKPKK [MDS-36]	0.03 µM	
Biotin-KRPAAIKKAGQAKKKK-NH2 [Bipartite]	0.1 µM	
Biotin-KSICKTIPSNKPKKK-NH2 [MDP-21]	1.0 µM	
Biotin-KTIPSNKPKKK-NH2 [MDS-35]	0.1 µM	
Biotin-NRTRRNRRRVR-NH2 [Flockhouse virus peptide]	0.03 µM	
Biotin-PKKKRKV-NH2	0.1 µM	
Biotin-QTRRRERRAEKQAQW-NH2 [Bacteriophage lambda N peptide]	1.0 µM	
Biotin-RAGLQFPVGRVHRLLRK-NH2 [Antibacterial peptide Buforin, reference compound]	3.0 µM	
Biotin-RPRGTRGKGRRIRR-NH2 [HIV-1 tat/tar]	0.3 µM	
Biotin-RQLRIAGRRLRGRSR-NH2 [MDM-28]		Concentration (translocation activity), optimization of E^rns peptide [2]: 0.1 µM
Biotin-RRRERRAEK-NH2	1.0 µM	
Biotin-RRVTSWLGRQLRIAGKRLEGRSK-NH2 [MDL-8]		Concentration (translocation activity), optimization of E^rns peptide [2]: 1.0 µM
Biotin-RVRSWLGRQLRIAGKRLEGRSK-NH2 [MDL-9]		Concentration (translocation activity), optimization of E^rns peptide [2]: 1.0 µM
Biotin-TRRSKRRSHRKF-NH2 [Herpes virus 8 k8 protein (res 124-135)]	0.1 µM	
Bioton-KRIPNKKPGKKTTTKPTKKPTIKTTKK-NH2 [MDP-04]		Concentration (translocation activity of transport peptides) ([2]; Table 11): 0.3 µM
MAGAININ (GIGKFLHSAGKFGKAFVGEIMKS; also: biotinylated (site not given here)) [reference compound]		Translocation activity (in words) [2]: did not
Rhodamine-GRQLRIAGRRLRGRSR-NH2 [A931]		Concentration (translocation activity), optimization of E^rns peptide ([2]; Table 9, lower concentration = higher translocation activity): 3.0 µM
